Laboratory results published in patent US12233047B2, “Pharmaceutical combination and use thereof” (ASCENTAGE PHARMA (SUZHOU) CO., LTD., priority 2019, dated 2025).
Where a chain is given by its changes, count along the chain named.

Tests used:
[1] = molecular target: T1, FLT3 (K663Q) (Homo sapiens, UniProt P36888, K663Q); test: KINOMEscan kinase binding assay, FLT3 (K663Q)
T1 construct: host or cells: T7 phage in E. coli (BL21-derived) or HEK-293
T1 sequence (P36888 27-993 K663Q): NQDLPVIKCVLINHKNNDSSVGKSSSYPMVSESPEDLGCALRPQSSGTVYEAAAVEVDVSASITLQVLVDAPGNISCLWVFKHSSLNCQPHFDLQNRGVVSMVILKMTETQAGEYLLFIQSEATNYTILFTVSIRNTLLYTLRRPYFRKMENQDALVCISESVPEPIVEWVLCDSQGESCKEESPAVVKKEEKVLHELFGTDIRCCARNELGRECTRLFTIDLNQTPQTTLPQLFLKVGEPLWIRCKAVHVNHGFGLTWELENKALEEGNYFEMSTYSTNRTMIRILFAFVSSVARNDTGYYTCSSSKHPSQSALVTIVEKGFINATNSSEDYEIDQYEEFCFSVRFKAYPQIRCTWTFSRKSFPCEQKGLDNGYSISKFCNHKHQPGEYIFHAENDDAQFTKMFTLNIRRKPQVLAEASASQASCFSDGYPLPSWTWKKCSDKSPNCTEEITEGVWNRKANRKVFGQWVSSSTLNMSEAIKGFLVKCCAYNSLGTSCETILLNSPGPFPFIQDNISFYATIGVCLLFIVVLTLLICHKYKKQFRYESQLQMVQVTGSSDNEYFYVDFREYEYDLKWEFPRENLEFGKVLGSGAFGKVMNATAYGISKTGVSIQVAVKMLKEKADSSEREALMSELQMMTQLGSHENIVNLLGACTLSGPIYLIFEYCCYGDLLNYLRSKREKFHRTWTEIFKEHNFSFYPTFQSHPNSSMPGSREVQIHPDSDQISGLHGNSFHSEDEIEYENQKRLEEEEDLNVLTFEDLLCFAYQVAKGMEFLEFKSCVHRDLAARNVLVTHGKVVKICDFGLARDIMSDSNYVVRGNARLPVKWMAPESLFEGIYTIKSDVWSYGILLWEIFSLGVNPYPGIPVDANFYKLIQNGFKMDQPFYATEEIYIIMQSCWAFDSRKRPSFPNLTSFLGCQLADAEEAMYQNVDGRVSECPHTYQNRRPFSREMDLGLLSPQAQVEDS
Protocol: (§1) The kinase assay was conducted using KINOMEscan™.
(§2) Kinase-tagged T7 phage strains were grown in parallel in 24-well blocks in an E. coli host derived from the BL21 strain. E. coli were grown to log-phase and infected with T7 phage from a frozen stock (multiplicity of infection=0.4) and incubated with shaking at 32° C. until lysis (90-150 minutes). The lysates were centrifuged (6,000×g) and filtered (0.2 μm) to remove cell debris. The remaining kinases were produced in HEK-293 cells and subsequently tagged with DNA for qPCR detection. Streptavidin-coated magnetic beads were treated with biotinylated small molecule ligands for 30 minutes at room temperature to generate affinity resins for kinase assays. The liganded beads were blocked with excess biotin and washed with blocking buffer (SeaBlock (Pierce), 1% BSA, 0.05% Tween 20, 1 mM DTT) to remove unbound ligand and to reduce non-specific phage binding. Binding reactions were assembled by combining kinases, liganded affinity beads, and test compound (Compound 23) in 1× binding buffer (20% SeaBlock, 0.17×PBS, 0.05% Tween 20, 6 mM DTT). Test compound were prepared as 40× stocks in 100% DMSO and directly diluted into the assay. All reactions were performed in polypropylene 384-well plates in a final volume of 0.04 ml. […] The kinase concentration in the eluates was measured by qPCR. […]

[2] = molecular target: T2, FLT3 (R834Q) (Homo sapiens, UniProt P36888, R834Q); test: KINOMEscan kinase binding assay, FLT3 (R834Q)
T2 construct: host or cells: T7 phage in E. coli (BL21-derived) or HEK-293
T2 sequence (P36888 27-993 R834Q): T1 sequence (P36888 27-993 K663Q) with Q637K, R808Q
Protocol: as §1, §2

Cc1ccc(C(=O)Nc2ccc(CN3CCN(C)CC3)c(C(F)(F)F)c2)cc1C#Cc1cnc2[nH]ncc2c1 [Compound 23, 3-(2-(1H-pyrazolo[3,4-b]pyridin-5-yl)ethynyl)-4-methyl-N-(4-((4-methylpiperazin-1-yl)methyl)-3-(trifluoromethyl)phenyl)benzamide]
% Ctrl@10 nM ([1]; 10 nM): 5 % Ctrl
% Ctrl@100 nM ([1]; 100 nM): 0.6 % Ctrl
% Ctrl@10 nM ([2]; 10 nM): 23 % Ctrl
% Ctrl@100 nM ([2]; 100 nM): 15 % Ctrl
